Experimental data from PMC9849758, “Chemically diverse activity-based probes with unexpected inhibitory mechanisms targeting trypsin-like serine proteases” (Frontiers in Chemistry, 2023).
Structures can show the parent of a compound that is named as a salt. Where two headings read alike, the source gives them in different places.

Key:
Assay in all cases: IC50 determination, spectrophotometric protease assay
Format in all cases: biochemical
[1] = molecular target: T1, uPA (recombinant urokinase plasminogen activator) (Homo sapiens, UniProt P00749)
T1 construct: purchased HYPHEN BioMed
Method: (§1) The IC50 values were determined using a spectrophotometric assay. All the experiments were conducted in duplicate. The readout consisted of evaluating the protease-mediated release of the chromophore para-nitroaniline (pNA) or fluorophore 7-amino-4-methyl coumarin (AMC) moieties from the respective substrates. Enzymatic activity was measured for 30 min at 37°C. All compounds were initially screened at three concentrations (10, 1, and .1 μM) to estimate the range of the IC50 value. Those which were able to reduce protease activity by at least 50% at a concentration of 10 μM were submitted to an exact IC50 determination. […] A third independent experiment was performed when the standard deviation of the two independent experiments was higher than […]. IC50 values were obtained by fitting the data with the four-parameter logistics equation using GraphPad Prism 9.
(§2) The conditions for each protease are described as follows, the concentration of substrate used was at the corresponding Km.

[2] = molecular target: T2, Cathepsin G (cathepsin G human neutrophil) (Homo sapiens, UniProt P08311); conditions: for CatG IC50: alkyne probes
T2 construct: Cathepsin G (cathepsin G human neutrophil, Sigma-Aldrich); purchased Sigma-Aldrich; host or cells: human neutrophil
T2 sequence (P08311 21-255): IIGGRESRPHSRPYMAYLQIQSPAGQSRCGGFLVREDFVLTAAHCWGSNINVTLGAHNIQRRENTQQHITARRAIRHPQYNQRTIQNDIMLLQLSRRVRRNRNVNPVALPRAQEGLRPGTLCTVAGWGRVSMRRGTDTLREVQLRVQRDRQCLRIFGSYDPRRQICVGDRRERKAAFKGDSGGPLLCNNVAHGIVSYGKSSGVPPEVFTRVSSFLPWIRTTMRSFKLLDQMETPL
Method: as §1, §2

[3] = molecular target: T3, Thrombin (recombinant thrombin) (Homo sapiens, UniProt P00734)
T3 construct: purchased R&D
Method: as §1, §2

[4] = molecular target: T4, TLCK-treated pancreatic bovine chymotrypsin (Bos taurus, UniProt P00766); conditions: for ChTryp IC50: alkyne probes
T4 construct: TLCK-treated pancreatic bovine chymotrypsin (Sigma-Aldrich); purchased Sigma-Aldrich; host or cells: bovine pancreas
Method: as §1, §2

[5] = molecular target: T5, Trypsin-3 (recombinant trypsin-3) (Homo sapiens, UniProt P35030); conditions: for Trypsin-3 IC50: alkyne probes
T5 construct: purchased R&D
T5 sequence (P35030 1-304): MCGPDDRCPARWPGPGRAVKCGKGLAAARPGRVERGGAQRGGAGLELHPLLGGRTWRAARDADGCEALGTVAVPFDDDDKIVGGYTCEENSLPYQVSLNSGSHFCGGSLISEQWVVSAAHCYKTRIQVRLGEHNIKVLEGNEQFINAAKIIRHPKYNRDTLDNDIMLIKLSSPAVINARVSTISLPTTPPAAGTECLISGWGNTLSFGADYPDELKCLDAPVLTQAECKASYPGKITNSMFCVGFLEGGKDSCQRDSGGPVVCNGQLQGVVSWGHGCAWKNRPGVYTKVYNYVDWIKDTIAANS
Method: as §1, §2

[6] = molecular target: T6, Neutrophil Elastase (recombinant neutrophil elastase) (Homo sapiens, UniProt P08246); conditions: for NE IC50: alkyne probes
T6 construct: purchased Enzo LifeSciences
T6 sequence (P08246 30-267): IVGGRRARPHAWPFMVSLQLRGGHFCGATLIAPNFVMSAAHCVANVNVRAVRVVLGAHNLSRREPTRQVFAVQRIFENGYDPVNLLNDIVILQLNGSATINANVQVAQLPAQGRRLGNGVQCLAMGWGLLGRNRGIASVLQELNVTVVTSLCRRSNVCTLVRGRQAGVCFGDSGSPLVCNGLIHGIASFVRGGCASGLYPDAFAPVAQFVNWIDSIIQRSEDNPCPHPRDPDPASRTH
Method: as §1, §2

[7] = molecular target: T7, β-tryptase (recombinant tryptase β-2) (Homo sapiens, UniProt P20231)
T7 construct: purchased EnzoLife Sciences
T7 sequence (P20231 31-275): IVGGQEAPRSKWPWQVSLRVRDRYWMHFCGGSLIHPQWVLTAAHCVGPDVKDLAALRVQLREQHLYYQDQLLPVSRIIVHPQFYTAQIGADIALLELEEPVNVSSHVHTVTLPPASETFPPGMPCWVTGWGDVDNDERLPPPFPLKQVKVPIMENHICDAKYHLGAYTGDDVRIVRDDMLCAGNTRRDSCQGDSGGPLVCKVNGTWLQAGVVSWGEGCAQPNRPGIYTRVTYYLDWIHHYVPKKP
Method: as §1, §2

[8] = read-out: uPA IC50, desthiobiotin probes, 15 min preincubation at 37°C, mean ± SD
[9] = read-out: CatG IC50, desthiobiotin probes, 15 min preincubation at 37°C, mean ± SD
[10] = read-out: Thrombin IC50, desthiobiotin probes, 15 min preincubation at 37°C, mean ± SD
[11] = read-out: ChTryp IC50, desthiobiotin probes, 15 min preincubation at 37°C, mean ± SD
[12] = read-out: Trypsin-3 IC50, desthiobiotin probes, 15 min preincubation at 37°C, mean ± SD
[13] = read-out: NE IC50, desthiobiotin probes, 15 min preincubation at 37°C, mean ± SD
[14] = read-out: β-tryptase IC50, desthiobiotin probes, 15 min preincubation at 37°C, mean ± SD
[15] = 15 min preincubation at 37°C, mean ± SD
[16] = alkyne probes, 15 min preincubation at 37°C, mean ± SD

Structure (SMILES)	IC50 [1] [µM]	IC50 [2] [µM]	IC50 [3] [µM]	IC50 [4] [µM]	IC50 [5] [µM]	IC50 [6] [µM]	IC50 [7] [µM]	other results
O=C(CCCCC1SCC2NC(=O)NC21)NCCOCCOCCOCCn1cc(CCCOC(=O)NC(Cc2ccccc2)P(=O)(Oc2ccccc2)Oc2ccccc2)nn1 (stereo not shown) [compound 43]								IC50 ([1]; read-out: uPA IC50, biotin probes, 15 min preincubation at 37 °C, mean ± SD): > 10 µM; IC50 ([2]; read-out: CatG IC50, biotin probes, 15 min preincubation at 37 °C, mean ± SD): 2.77 µM; IC50 ([3]; read-out: Thrombin IC50, biotin probes, 15 min preincubation at 37 °C, mean ± SD): > 10 µM; IC50 ([4]; read-out: ChTryp IC50, biotin probes, 15 min preincubation at 37 °C, mean ± SD): 2.64 µM; IC50 ([5]; read-out: Trypsin-3 IC50, biotin probes, 15 min preincubation at 37 °C, mean ± SD): > 10 µM; IC50 ([6]; read-out: NE IC50, biotin probes, 15 min preincubation at 37 °C, mean ± SD): > 10 µM; IC50 ([7]; read-out: β-tryptase IC50, biotin probes, 15 min preincubation at 37 °C, mean ± SD): > 10 µM
C#CCCCOC(=O)NC(c1ccc(N)cc1)P(=O)(Oc1ccccc1)Oc1ccccc1 (stereo not shown) [19b]	> 10	> 10	6.59 ± 3.9	8.52 ± 1.81	9.06 ± 1.1	> 10	> 10	
C#CCCCOC(=O)NC(C1CCNCC1)P(=O)(Oc1ccccc1)Oc1ccccc1 (stereo not shown) [23b]	> 10	> 10	> 10	> 10	> 10	> 10	> 10	
C[C@@H]1NC(=O)N[C@@H]1CCCCCC(=O)NCCOCCOCCOCCn1cc(CCCOC(=O)NC(CCCCN)P(=O)(Oc2ccccc2)Oc2ccccc2)nn1 (stereo partly shown) [47b]								IC50 [1, 8]: 4.62 ± 0.17 µM; IC50 [2, 9]: > 10 µM; IC50 [3, 10]: 3.55 ± 0.17 µM; IC50 [4, 11]: > 10 µM; IC50 [5, 12]: 0.52 ± 0.24 µM; IC50 [6, 13]: > 10 µM; IC50 [7, 14]: 2.49 ± 0.19 µM
C#CCCCOC(=O)NC(Cc1ccccc1)P(=O)(Oc1ccccc1)Oc1ccccc1 (stereo not shown) [compound 12]	> 10	> 10	> 10	1.54 ± 1.34	> 10	> 10	> 10	
C#CCCCOC(=O)NC(Cc1ccc(N)cc1)P(=O)(Oc1ccc(NC(C)=O)cc1)Oc1ccc(NC(C)=O)cc1 (stereo not shown) [17b]	> 10	0.37 ± 0.008	2.97 ± 0.07	0.49 ± 0.28	3.71 ± 0.71	> 10	> 10	CatG IC50 [2, 15]: submicromolar; ChTryp IC50 [4, 15]: submicromolar
CC(=O)Nc1ccc(OP(=O)(Oc2ccc(NC(C)=O)cc2)C(CCCCN)NC(=O)OCCCc2cn(CCOCCOCCOCCNC(=O)CCCCC[C@H]3NC(=O)N[C@H]3C)nn2)cc1 (stereo partly drawn) [49b, 3-(1-(18-((4R,5S)-5-methyl-2-oxoimidazolidin-4-yl)-13-oxo-3,6,9-trioxa-12-azaoctadecyl)-1H-1,2,3-triazol-4-yl)propyl (5-amino-1-(bis(4-acetamidophenoxy)phosphoryl)pentyl)carbamate trifluoroacetate salt]								IC50 [1, 8]: 6.75 ± 0.52 µM; IC50 [2, 9]: 4.47 ± 0.51 µM; IC50 [3, 10]: 1.18 ± 0.04 µM; IC50 [4, 11]: > 10 µM; IC50 [5, 12]: 0.09 ± 0.005 µM; IC50 [6, 13]: > 10 µM; IC50 [7, 14]: 1.11 ± 0.05 µM
C#CCCCOC(=O)NC(C(C)C)P(=O)(Oc1ccccc1)Oc1ccccc1 (stereo not shown) [compound 13]	> 10	> 10	> 10	> 10	> 10	> 10	> 10	NE IC50 [6, 15]: not potent
C#CCCCOC(=O)NC(Cc1ccc(CNC(=N)N)cc1)P(=O)(Oc1ccccc1)Oc1ccccc1 (stereo not shown) [40b]	> 10	6.16 ± 0.48	> 10	> 10	> 10	> 10	> 10	
CC(C)C(NC(=O)OCCCc1cn(CCOCCOCCOCCNC(=O)CCCCC[C@H]2NC(=O)N[C@H]2C)nn1)P(=O)(Oc1ccccc1)Oc1ccccc1 (stereo partly shown) [compound 44]	> 10	> 10	> 10	> 10	> 10	4.7 ± 0.2	> 10	
C#CCCCOC(=O)NC(CCCCN)P(=O)(Oc1ccc(NC(=O)OC)cc1)Oc1ccc(NC(=O)OC)cc1 (stereo not shown) [30b]	2.44 ± 0.35	0.56 ± 0.002	1.18 ± 0.07	> 10	0.006 ± 0.0006	> 10	0.68 ± 0.05	Trypsin-3 IC50 [5, 15]: nanomolar inhibition
C#CCCCOC(=O)NC(Cc1ccc(CN)cc1)P(=O)(Oc1ccccc1)Oc1ccccc1 (stereo not shown) [22b]	2.3 ± 0.1	5.26 ± 0.68	> 10	> 10	3.82 ± 0.19	> 10	> 10	
C#CCCCOC(=O)NC(Cc1ccc(N)cc1)P(=O)(Oc1ccccc1)Oc1ccccc1 (stereo not shown) [16b]	> 10	3.74 ± 0.27	> 10	2.67 ± 0.57	6.85 ± 0.8	> 10	> 10	
C#CCCCOC(=O)NC(CCCCN)P(=O)(Oc1ccccc1)Oc1ccccc1.O=C(O)C(F)(F)F (stereo not shown) [29b]	5.27 ± 0.15	> 10	7.36 ± 0.25	5.87 ± 3.39	0.07 ± 0.02	> 10	3.96 ± 0.5	Trypsin-3 IC50 [5, 15]: nanomolar inhibition
C#CCCCOC(=O)NC(CCCN)P(=O)(Oc1ccccc1)Oc1ccccc1.O=C(O)C(F)(F)F (stereo not shown) [14b]	> 10	> 10	> 10	> 10	> 10	> 10	> 10	uPA IC50 [1, 16]: inactive; CatG IC50 [2, 15]: inactive; Thrombin IC50 [3, 16]: inactive; ChTryp IC50 [4, 15]: inactive; Trypsin-3 IC50 [5, 15]: inactive; NE IC50 [6, 15]: inactive; β-tryptase IC50 [7, 16]: inactive
C#CCCCOC(=O)NC(c1ccc(N)cc1)P(=O)(Oc1ccc(NC(C)=O)cc1)Oc1ccc(NC(C)=O)cc1 (stereo not shown) [20b]	> 10	> 10					> 10	
C#CCCCOC(=O)NC(Cc1ccc(N)cc1)P(=O)(Oc1ccc(Cl)cc1)Oc1ccc(Cl)cc1 (stereo not shown) [18b]	6.38 ± 0.52	0.36 ± 0.01	7.88 ± 0.61	0.19 ± 0.14	1.72 ± 0.19	> 10	> 10	CatG IC50 [2, 15]: submicromolar; ChTryp IC50 [4, 15]: submicromolar
C[C@@H]1NC(=O)N[C@@H]1CCCCCC(=O)NCCOCCOCCOCCn1cc(CCCOC(=O)NC(Cc2ccccc2)P(=O)(Oc2ccccc2)Oc2ccccc2)nn1 (stereo partly shown) [compound 42]	> 10	3.23 ± 0.29	> 10	2.07 ± 0.85	> 10	> 10	> 10	
C#CCCCOC(=O)NC(c1ccc(N)cc1)P(=O)(Oc1ccc(Cl)cc1)Oc1ccc(Cl)cc1 (stereo not shown) [21b]	> 10	> 10					> 10	
